Test results: patent US5196424A, “N-[2-amino-4-substituted[[(pyrrollo or pyrido)[2,3-d]pyrimidinyl]-alkyl]benzoyl]-L-glutamic acids” (priority 1992, dated 1993)
Values after ≈ are worked out from the molar mass of the structure shown. Like-named read-outs stand apart in the source and are kept apart here.

How the values were obtained:
[1] = test system: CCRF-CEM cells; experiment: Growth inhibition of CCRF-CEM human leukemia cells, 72 h, Coulter counter (Table I); assay type: cell-based; conditions: read-out: IC50, concentration required for 50% inhibition of growth
Procedure: Cluster plates were prepared in duplicate with the compound at various concentrations ranging from 100 μg/ml to 0.005 μg/ml. Test compounds were dissolved initially in DMSO and further diluted with solvent to the desired concentration.

[2] = test system: 6C3HED lymphosarcoma; experiment: In vivo test against transplanted 6C3HED (Gardner) lymphosarcoma in C3H mice (Table II)
Procedure: The compounds were tested in C3H mice bearing a 6C3HED lymphosarcoma, also known as the Gardner lymphosarcoma (GLS). The 6C3HED lymphosarcoma was obtained from the Division of Cancer Treatment, National Cancer Institute, Tumor Bank, maintained at E. G. and G. Mason Research (Worcester, Massachusetts). First passage tumor was stored in liquid nitrogen using standard techniques. The transplanted tumor was reestablished from the Tumor Bank every six months or as needed. The tumor was maintained by serial passage twice weekly in C3H mice.
In the procedure, the tumor was removed from passage animals and minced into 1- to 3-mm square fragments using sterile techniques. Tumor pieces were checked for sterility using both Antibiotic Medium 1 and Brain Heart Infusion (Difco, Detroit, Mich.). Recipient mice were shaved and tumor pieces were implanted subcutaneiously in the auxiliary region by trocar. Drug therapy on the appropriate schedule was initiated on the day after tumor implant. The compound being tested was mixed with 2.5 weight % of a polyoxyethylated oil known as "Emulphor EL 620" surfactant from GAF Chemicals Corporation (1:40 dilution of Empulphor in saline). All animals were weighed at the beginning and end of administration of the subject compounds. Food and water were provided ad libitum. The drug was administered in 0.5 ml of 2.5% Emulphor. Unless otherwise indicated, the compound was administered once per day for eight days. The tumor was measured the day after treatment ended with two dimensional measurements (width and length) of the tumor taken using digital electronic calipers interfaced to a microcomputer, J. F. Worzalla, et al., Investigational New Drugs, 8, 241-251 (1990). Tumor weights were calculated from these measurements using the following formula:
(tumor weight in mg)=width in mm)^2 ×(length in mm)/2
At least one control group of an equal number of mice was treated with the same volume of 2.5% Emulphor only.

[3] = molecular target: T1, human dihydrofolate reductase (DHFR) (Homo sapiens, UniProt P00374); experiment: Inhibition of isolated human dihydrofolate reductase (Table III); assay type: biochemical; conditions: DHFR (5 × 10^-8 M); read-out: DHFR IC50, concentration required for 50% inhibition of enzyme activity
T1 construct: was obtained from human leukemic lymphoblasts (WI-L2/M4 cells); endogenous in cells; host or cells: WI-L2/M4 human leukemic lymphoblasts; enzyme purified from the cells according to Delcamp et al., Biochemistry 22, 633-639 (1983)
T1 sequence (P00374 1-187): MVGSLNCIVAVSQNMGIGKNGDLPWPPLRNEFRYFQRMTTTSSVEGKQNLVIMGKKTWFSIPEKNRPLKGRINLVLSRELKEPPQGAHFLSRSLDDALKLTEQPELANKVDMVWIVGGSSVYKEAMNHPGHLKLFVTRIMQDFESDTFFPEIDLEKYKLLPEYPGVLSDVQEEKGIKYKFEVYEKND

[4] = test system: C3H Mammary Adenocarcinoma; conditions: Days 1,3,5,7,9
[5] = test system: dihydrofolic reducatase; conditions: background statement; cited from earlier work
[6] = CCRF-CEM cells, 72 h incubation

## Nc1nc(Cl)c2c(CCc3ccc(C(=O)N[C@@H](CCC(=O)O)C(=O)O)cc3)c[nH]c2n1 [Example 1, N-[2-amino-4-chloro-[[pyrrolo[2,3-d]-pyrimidin-5-yl]-ethyl]benzoyl]-L-glutamic acid]
[1]; [6]
  IC50: > 20 µg/mL

## Nc1nc(S)c2c(CCc3ccc(C(=O)N[C@@H](CCC(=O)O)C(=O)O)cc3)c[nH]c2n1 [Example 2, N-[2-amino-4-mercapto[[pyrrolo[2,3-d]-pyrimidin-5-yl]-ethyl]benzoyl]-L-glutamic acid]
[1]; [6]
  IC50: 0.032 µg/mL (≈ 0.0722 µM)

## Nc1ncc2c(CCc3ccc(C(=O)N[C@@H](CCC(=O)O)C(=O)O)cc3)c[nH]c2n1 [Example 3, N-[2-amino-[[pyrrolo[2,3-d]-pyrimidin-5-yl]-ethyl]benzoyl]-L-glutamic acid]
[1]; [6]
  IC50: 0.019 µg/mL (≈ 0.0462 µM)

## Nc1ncc2c(n1)NCC2CCc1ccc(C(=O)N[C@@H](CCC(=O)O)C(=O)O)cc1 (stereo partly drawn) [Example 4, N-[2-amino-[di-hydropyrrolo[2,3-d]pyrimidin-5-yl]-ethyl]benzoyl-L-glutamicacid]
[1]; [6]
  IC50: 0.005 µg/mL (≈ 0.0121 µM)
[2]; 0.25 mg/kg, Dailyx8
  % INH (percent inhibition of tumor): 0%
  Toxic/Total: 0/10
[2]; 0.50 mg/kg, Dailyx8
  % INH (percent inhibition of tumor): 1%
  Toxic/Total: 0/10
[2]; 1.00 mg/kg, Dailyx8
  Toxic/Total: 0/10
[2]; 2.00 mg/kg, Dailyx8
  % INH (percent inhibition of tumor): 97%
  Toxic/Total: 0/10
[2]; 2 mg/kg, Days 1,3,5,7
  % INH (percent inhibition of tumor): 49%
  Toxic/Total: 0/10
[2]; 4.00 mg/kg, Dailyx8
  % INH (percent inhibition of tumor): 100%
  Toxic/Total: 1/10
[2]; 4 mg/kg, Days 1,3,5,7
  % INH (percent inhibition of tumor): 99%
  Toxic/Total: 0/10
[2]; 6.25 mg/kg, Dailyx8
  % INH (percent inhibition of tumor): 100%
  Toxic/Total: 6/10
[2]; 8 mg/kg, Days 1,3,5,7
  Toxic/Total: 0/10
[2]; 12.5 mg/kg, Dailyx8
  % INH (percent inhibition of tumor): 100%
  Toxic/Total: 8/10
[2]; 16 mg/kg, Days 1,3,5,7
  % INH (percent inhibition of tumor): 100%
  Toxic/Total: 0/10
[2]; 25 mg/kg, Dailyx8
  Toxic/Total: 10/10
[2]; 50 mg/kg, Dailyx8
  Toxic/Total: 10/10
[3]
  IC50: 96 nM
[4]; 1 mg/kg
  Toxic/Total: 0/10
[4]; 2 mg/kg
  % INH (percent inhibition of tumor): 10%
  Toxic/Total: 0/10
[4]; 4 mg/kg
  % INH (percent inhibition of tumor): 24%
  Toxic/Total: 0/10
[4]; 16 mg/kg
  % INH (percent inhibition of tumor): 92%
[4]; 32 mg/kg
  % INH (percent inhibition of tumor): 95%

## COc1nc(N)nc2[nH]cc(CCc3ccc(C(=O)N[C@@H](CCC(=O)O)C(=O)O)cc3)c12 [Example 5, N-[2-amino-4-methoxy[[pyrrolo[2,3-d]-pyrimidin-5-yl]-ethyl]benzoyl]-L-glutamic acid]
[1]; [6]
  IC50: > 2 µg/mL

## CCN(CC)c1nc(N)nc2[nH]cc(CCc3ccc(C(=O)N[C@@H](CCC(=O)O)C(=O)O)cc3)c12 [Example 6, N-[2-amino-4-diethylamino-[[pyrrolo[2,3-d]-pyrimidin-5-yl]-ethyl]benzoyl]-L-glutamic acid]
[1]; [6]
  IC50: 0.9 µg/mL (≈ 1.87 µM)

## Nc1ncc2c(n1)NCC(CCc1ccc(C(=O)N[C@@H](CCC(=O)O)C(=O)O)cc1)C2 (stereo partly drawn) [Example 7, N-[2-amino-[[tetrahydropyrido[2,3-d]-pyrimidin-6-yl]-ethyl]benzoyl]-L-glutamic acid]
[1]; CCRF-CEM, 72 h
  IC50: 0.005 µg/mL (≈ 0.0117 µM)

## CN(Cc1cnc2nc(N)nc(N)c2n1)c1ccc(C(=O)N[C@@H](CCC(=O)O)C(=O)O)cc1 [amethopterin]
[5]
  inhibition of the second reduction, from dihydrofolic acid to tetrahydrofolic acid: inhibit the second reduction
